According to patent US10874636B2, “Application of substituted cinnamamide derivatives in preparation of anti-anxiety medication” (TASLY PHARMACEUTICAL GROUP CO., LTD., priority 2016, dated 2020):

Assays:
[1] = tested on: mice; experiment: Elevated plus-maze test for mice; assay type: in vivo, ICR male mice; settings: 10 mg/kg intragastric for 1 week; in words
Procedure: 247 ICR male mice aged 6-8 weeks with the weight of 18-22 g were taken and fed adaptively for 1 week. Then, these mice were evenly divided, at random, into 19 groups based on their weights. Intragastric administration was conducted once a day according to the drugs and dosages listed in Table 1, which lasted for 7 consecutive days. 20 minutes after administration on the 7th day, the elevated plus-maze test was conducted.
The elevated plus-maze (EPM) for mice were composed of two opposite open arms (50 cm×10 cm) and two opposite enclosed arms (50 cm×10 cm×40 cm), wherein upper portions of the enclosed arms were not capped, an open portion of 10 cm×10 cm was located in the middle of the maze, and the maze was 50 cm away from the ground. The test was conducted in a quite environment at a time period ranging from 13:00 to 18:00.
The open-arms entries (OE) and enclosed-arms entries, as well as the residence time in two arms, of the mice, within 5 minutes, were recorded respectively, and the percentage of the open-arms entries (OE %) and that of the open-arms time (OT %) for each group of mice with respect to the total entries into the two arms and the total residence time in the two arms therein were calculated respectively.
Analysis was conducted using SPSS 11.5 software, and data were represented by x±S, the significance of differences between groups was compared using the analysis of variance, differences were significant while P was less than 0.05.

[2] = tested on: rats; experiment: Drinking conflict experiment for rats (Vogel test); assay type: in vivo, SD male rats; settings: for Effect on water licks of the rats during the punished session compared with the solvent control groups: 5 mg/kg intragastric for 10 days, in words; for Water licks of rats during punished session: 5 mg/kg intragastric once a day for 10 days, test half an hour after final administration, 3 minutes, 0.3 mA, x±S
Procedure: 230 SD male rats with the weight of 180-220 g were taken and fed adaptively for 1 week. Then, these rats were divided, at random, into 19 groups based on their weights, 12-13 rats in each group. Intragastric administration was conducted one a day according to the drugs and dosages listed in Table 2, which lasted for 10 consecutive days. Water deprivation 48 hours before the final administration, and non-punitive drinking training was conducted on the 9th day; on the 10th day, half an hour after the final intragastric administration of all the groups, the punitive experimental test was conducted.
On the first stage (non-punitive drinking training): after water deprivation for 24 hours, the rats were placed in operation boxes individually to explore thoroughly, until they found bottle mouths and began to lick water, water licks of the rats within 3 minutes under the conditions of no electric shock (the condition was set as follows: the strength of electric shock was 0 mA) were automatically recorded by counters, and rats whose water licks were less than 300 were eliminated. On the second stage (punitive experiment): the above rats which were not eliminated were placed in the operation boxes after continuing the water deprivation for 24 hours (48 hours in total). The rats could find the bottle mouths rapidly and begin to lick water, the instruments began to time automatically and imparted one electric shock (the ratio of licks to the number of electric shocks was 20:1) while the water licks reached to 20, wherein the strength of electric shocks was 0.3 mA, lasting for 2 seconds, but these rats may control the length of the time for which they were electrically shocked by keeping away from the bottle mouths. Water licks of the rats during the punished session (3 minutes) were recorded.
Observational indexes of the Vogel drinking conflict model: water licks of the rats during the punished session.

Question: With `CC(C)CNC(=O)/C=C/c1cc(I)c2c(c1)OCO2` [II-3, 5′-iodine-3′,4′-methylenedioxy cinnamic acid isobutylamide] as the compound, how does the “Effect on open-arms entries of the mice compared with the solvent control groups” value [1] read?
Answer: increase the open-arms entries of the mice

Question: What about the “Effect on open-arms time of the mice compared with the solvent control groups” value [1] of the same compound?
Answer: prolong their open-arms time

Question: And the “Effect on water licks of the rats during the punished session compared with the solvent control groups” value [2]?
Answer: increase water licks of the rats during the punished session

Question: What about the “Water licks of rats during punished session” value [2] of the same compound?
Answer: 483.75 ± 59.05

Question: With `CC(C)CNC(=O)/C=C/c1cc(Cl)c2c(c1)OCO2` [II-4, 5′-chlorine-3′,4′-methylenedioxy cinnamic acid isobutylamide] as the compound, how does the “Effect on open-arms entries of the mice compared with the solvent control groups” value [1] read?
Answer: increase the open-arms entries of the mice

Question: And the “Effect on open-arms time of the mice compared with the solvent control groups” value [1]?
Answer: prolong their open-arms time

Question: What about the “Effect on water licks of the rats during the punished session compared with the solvent control groups” value [2] of the same compound?
Answer: increase water licks of the rats during the punished session

Question: What about the “Water licks of rats during punished session” value [2] of the same compound?
Answer: 477.22 ± 66.66

Question: For `CC(C)CNC(=O)/C=C/c1cc2c(c(C(F)(F)F)c1)OCO2` [II-5, 5′-trifluoromethyl-3′,4′-methylenedioxy cinnamic acid isobutylamide], which “Effect on open-arms entries of the mice compared with the solvent control groups” value [1] is on record?
Answer: increase the open-arms entries of the mice

Question: And the “Effect on open-arms time of the mice compared with the solvent control groups” value [1]?
Answer: prolong their open-arms time

Question: And the “Effect on water licks of the rats during the punished session compared with the solvent control groups” value [2]?
Answer: increase water licks of the rats during the punished session

Question: And the “Water licks of rats during punished session” value [2]?
Answer: 469.11 ± 50.51

Question: With `O=C(/C=C/c1cc2c(c(C(F)(F)F)c1)OCO2)N1CCCCC1` [II-10, 5′-trifluoromethyl-3′,4′-methylenedioxy cinnamic acid piperidinylamide] as the compound, how does the “Effect on open-arms entries of the mice compared with the solvent control groups” value [1] read?
Answer: increase the open-arms entries of the mice

Question: And the “Effect on open-arms time of the mice compared with the solvent control groups” value [1]?
Answer: prolong their open-arms time

Question: What about the “Effect on water licks of the rats during the punished session compared with the solvent control groups” value [2] of the same compound?
Answer: increase water licks of the rats during the punished session

Question: What about the “Water licks of rats during punished session” value [2] of the same compound?
Answer: 459.75 ± 59.23

Question: How did the “Effect on open-arms entries of the mice compared with the solvent control groups” value [1] turn out when `CC(C)CNC(=O)CCc1cc2c(c(C(F)(F)F)c1)OCO2` [II-11, 3-(5′-trifluoromethyl-3′,4′-methylenedioxyphenyl)-propionic acid isobutylamide] was run?
Answer: increase the open-arms entries of the mice

Question: What about the “Effect on open-arms time of the mice compared with the solvent control groups” value [1] of the same compound?
Answer: prolong their open-arms time

Question: What about the “Effect on water licks of the rats during the punished session compared with the solvent control groups” value [2] of the same compound?
Answer: increase water licks of the rats during the punished session

Question: What about the “Water licks of rats during punished session” value [2] of the same compound?
Answer: 426.25 ± 37.29

Question: Which results are given for `CC(C)CNC(=O)c1cc2c(c(C(F)(F)F)c1)OCO2` [II-12, 5-trifluoromethyl-3′,4′-methylenedioxy benzoic acid isobutylamide]?
Answer: Effect on open-arms entries of the mice compared with the solvent control groups [1]: increase the open-arms entries of the mice; Effect on open-arms time of the mice compared with the solvent control groups [1]: prolong their open-arms time; Effect on water licks of the rats during the punished session compared with the solvent control groups [2]: increase water licks of the rats during the punished session; Water licks of rats during punished session [2]: 402.67 ± 50.35

Question: With `CN1CCN(C(=O)/C=C/CCc2cc3c(c(C(F)(F)F)c2)OCO3)CC1.Cl` [II-13, (E)-N-(4-methylpiperazinyl)-5-(5′-trifluoromethyl-3′,4′-methylenedioxyphenyl)-1-pentene amide hydrochloride] as the compound, how does the “Effect on open-arms entries of the mice compared with the solvent control groups” value [1] read?
Answer: increase the open-arms entries of the mice

Question: What about the “Effect on open-arms time of the mice compared with the solvent control groups” value [1] of the same compound?
Answer: prolong their open-arms time

Question: What about the “Effect on water licks of the rats during the punished session compared with the solvent control groups” value [2] of the same compound?
Answer: increase water licks of the rats during the punished session

Question: And the “Water licks of rats during punished session” value [2]?
Answer: 393.44 ± 48.99

Question: What does the source list for `CC(C)CNC(=O)/C=C/C=C/CCc1cc2c(c(C(F)(F)F)c1)OCO2` [II-14, (2E, 4E)-N-isobutyl-7-(5′-trifluoromethyl-3′,4′-methylenedioxyphenyl)-2,4-heptadiene amide]?
Answer: Effect on open-arms entries of the mice compared with the solvent control groups [1]: increase the open-arms entries of the mice; Effect on open-arms time of the mice compared with the solvent control groups [1]: prolong their open-arms time; Effect on water licks of the rats during the punished session compared with the solvent control groups [2]: increase water licks of the rats during the punished session; Water licks of rats during punished session [2]: 368.00 ± 47.38

Question: For `CN1CCN(C(=O)/C=C/C=C/CCc2cc3c(c(C(F)(F)F)c2)OCO3)CC1.Cl` [II-15, (2E,4E)-N-(4-methylpiperazinyl)-7-(5′-trifluoromethyl-3′,4′-methylenedioxyphenyl)-2,4-heptadiene amide hydrochloride], which “Effect on open-arms entries of the mice compared with the solvent control groups” value [1] is on record?
Answer: increase the open-arms entries of the mice

Question: And the “Effect on open-arms time of the mice compared with the solvent control groups” value [1]?
Answer: prolong their open-arms time

Question: What about the “Effect on water licks of the rats during the punished session compared with the solvent control groups” value [2] of the same compound?
Answer: increase water licks of the rats during the punished session

Question: And the “Water licks of rats during punished session” value [2]?
Answer: 412.25 ± 42.90

Question: `COc1cc(/C=C/C(=O)NCC(C)C)cc(C(F)(F)F)c1OC` [III-2, 3′,4′-dimethoxy-5′-trifluoromethyl-cinnamic acid isobutylamide] was tested. Which “Effect on open-arms entries of the mice compared with the solvent control groups” value [1] did it give?
Answer: increase the open-arms entries of the mice

Question: What about the “Effect on open-arms time of the mice compared with the solvent control groups” value [1] of the same compound?
Answer: prolong their open-arms time

Question: And the “Effect on water licks of the rats during the punished session compared with the solvent control groups” value [2]?
Answer: increase water licks of the rats during the punished session

Question: And the “Water licks of rats during punished session” value [2]?
Answer: 368.00 ± 39.59

Question: For `COc1c(O)cc(/C=C/C(=O)NCC(C)C)cc1C(F)(F)F` [III-4, 3′-hydroxyl-4′-methoxy-5′-trifluoromethyl-cinnamic acid isobutylamide], which “Effect on open-arms entries of the mice compared with the solvent control groups” value [1] is on record?
Answer: increase the open-arms entries of the mice

Question: And the “Effect on open-arms time of the mice compared with the solvent control groups” value [1]?
Answer: prolong their open-arms time

Question: What about the “Effect on water licks of the rats during the punished session compared with the solvent control groups” value [2] of the same compound?
Answer: increase water licks of the rats during the punished session

Question: What about the “Water licks of rats during punished session” value [2] of the same compound?
Answer: 394.22 ± 50.29

Question: Which results are given for `CC(C)CNC(=O)/C=C/c1cc(O)c(O)c(C(F)(F)F)c1` [III-7, 3′,4′-dihydroxyl-5′-trifluoromethyl-cinnamic acid isobutylamide]?
Answer: Effect on open-arms entries of the mice compared with the solvent control groups [1]: increase the open-arms entries of the mice; Effect on open-arms time of the mice compared with the solvent control groups [1]: prolong their open-arms time; Effect on water licks of the rats during the punished session compared with the solvent control groups [2]: increase water licks of the rats during the punished session; Water licks of rats during punished session [2]: 378.33 ± 54.97

Question: How did the “Effect on open-arms entries of the mice compared with the solvent control groups” value [1] turn out when `O=C(/C=C/c1cc(O)c(O)c(C(F)(F)F)c1)N1CCCCC1` [III-9, 3′,4′-dihydroxyl-5′-trifluoromethyl-cinnamyl piperidine] was run?
Answer: increase the open-arms entries of the mice

Question: And the “Effect on open-arms time of the mice compared with the solvent control groups” value [1]?
Answer: prolong their open-arms time

Question: What about the “Effect on water licks of the rats during the punished session compared with the solvent control groups” value [2] of the same compound?
Answer: increase water licks of the rats during the punished session

Question: What about the “Water licks of rats during punished session” value [2] of the same compound?
Answer: 363.56 ± 39.70

Question: Which “Effect on open-arms entries of the mice compared with the solvent control groups” value [1] does the source give for `CC(C)CNC(=O)CCc1cc(O)c(O)c(C(F)(F)F)c1` [III-10, 3-(3′,4′-dihydroxyl-5′-trifluoromethylphenyl)-propionic acid isobutylamide] here?
Answer: increase the open-arms entries of the mice

Question: What about the “Effect on open-arms time of the mice compared with the solvent control groups” value [1] of the same compound?
Answer: prolong their open-arms time

Question: What about the “Effect on water licks of the rats during the punished session compared with the solvent control groups” value [2] of the same compound?
Answer: increase water licks of the rats during the punished session

Question: And the “Water licks of rats during punished session” value [2]?
Answer: 369.00 ± 44.83

Question: Which results are given for `CC(C)CNC(=O)c1cc(O)c(O)c(C(F)(F)F)c1` [III-11, 3,4-dihydroxyl-5-trifluoromethyl-benzoic acid isobutylamide]?
Answer: Effect on open-arms entries of the mice compared with the solvent control groups [1]: increase the open-arms entries of the mice; Effect on open-arms time of the mice compared with the solvent control groups [1]: prolong their open-arms time; Effect on water licks of the rats during the punished session compared with the solvent control groups [2]: increase water licks of the rats during the punished session; Water licks of rats during punished session [2]: 361.13 ± 38.38
